According to patent US9226950B2, “Method and composition for treating diabetes mellitus” (National Dong Hwa University, priority 2013, dated 2016):

Legend:
AMPK = test: Phosphorylation of AMPK on Thr172 in L6 cells, Western blot; format: cell-based, mouse; conditions: 100 μM tetracosanol 90 min, then 10 μM insulin 30 min, FIG. 2
Experimental: (§1) […] muscle myoblast cells (L6) was a generous gift from Professor Hitoshi Ashida's Lab. (Kobe University, Kobe, Japan). The cells were grown and maintained in α-minimal essential medium (α-MEM, 12000022, GIBCO, CA, USA) containing 10% fetal bovine serum (FBS, GIBCO) and 1% penicillin streptomycin (GIBCO) in a cell culture incubator with 5% CO2 at 37° C. Prior to the following experiments, the cells were seeded and cultured at a density of 8×10^3 cells per well in 96-well plates or 2.5×10^5 cells per well in 6-well plates. After the myoblasts achieved 80% confluence, the cells were incubated for 5 days in the α-MEM supplemented with 2% FBS to induce differentiation to myotubes.
The L6 cells were fully differentiated with α-MEM supplemented with 2% FBS for 5 days to myotubes. […] The levels of the proteins including phospho-AKT (Thr308), AKT, phospho-AMPK (Thr172), and AMPK (Cell Signaling) were detected and evaluated by Western blot with primary antibody.
The cells after treatments were collected and washed twice in cold KRH buffer, and then lysed in ice-cold RIPA buffer incubation at 4° C. for 60 min. After centrifugation at 12,000×g for 30 min at 4° C., the supernatant was kept and quantified by Bradford protein assay (Bio-Rad, Hercules, Calif., USA). […] Acquired data were analyzed and compared the difference among treatments. […]

Insr = target: T1, Insr (Rattus norvegicus, UniProt P15127); test: Phosphorylation of insulin receptors (Tyr1158/Tyr1162/Tyr1163) in L6 cells, Western blot; format: cell-based; conditions: FIG. 1(a)
T1 construct: L6 cells were fully differentiated with α-MEM supplemented with 2% FBS for 5 days to myotubes; endogenous in cells; host or cells: L6 myoblasts differentiated to myotubes
Experimental: as §1
L6 cells were fully differentiated with α-MEM supplemented with 2% FBS for 5 days to myotubes. The cells were washed twice with Phosphate Buffered Saline (PBS) containing 0.1% BSA and subsequently incubated α-MEM containing 0.25% BSA with or without 100 nM of S961, and treated with or without 100 μM of Tetracosanol for 90 min. Then, the cells were treated with or without 10 μM of insulin for 5 min. […] The levels of the proteins including phospho-Insulin receptors (Tyr1158/Tyr1162/Tyr1163) and Insulin receptor (Cell Signaling, Boston, Mass., USA) were detected and evaluated by Western blot with primary antibody.
The cells after treatments were collected and washed twice in cold KRH buffer, and then lysed in ice-cold RIPA buffer incubation at 4° C. for 60 min. After centrifugation at 12,000×g for 30 min at 4° C., the supernatant was kept and quantified by Bradford protein assay (Bio-Rad, Hercules, Calif., USA). […] The signals were monitored using Western Lightning™ Plus-ECL (Perkin Elmer Life Sciences) and the PVDF membrane was exposed to Luminescent image analyzer (LAS)-3000 (Fujifilm, Minato, Tokyo, Japan). Acquired data were analyzed and compared the difference among treatments. […]

AKT = test: Phosphorylation of AKT on Thr308 in L6 cells, Western blot; format: cell-based, rat; conditions: FIG. 1(b)
Experimental: as §1
The L6 cells were fully differentiated with α-MEM supplemented with 2% FBS for 5 days to myotubes. The cells were washed twice with PBS containing 0.1% BSA and subsequently incubated α-MEM containing 0.25% BSA with or without 100 nM of S961, and then treated with or without 100 μM of Tetracosanol for 90 min. Then, the cells were treated with or without 10 μM of insulin for 30 min. Finally, the cells were collected and washed twice in KRH buffer, then lysed in ice-cold RIPA buffer for 60 min. After centrifugation at 12,000×g for 30 min. at 4° C., the supernatant was kept at −80° C. until use. The levels of the proteins including phospho-AKT (Thr308), AKT, phospho-AMPK (Thr172), and AMPK (Cell Signaling) were detected and evaluated by Western blot with primary antibody.
The cells after treatments were collected and washed twice in cold KRH buffer, and then lysed in ice-cold RIPA buffer incubation at 4° C. for 60 min. After centrifugation at 12,000×g for 30 min at 4° C., the supernatant was kept and quantified by Bradford protein assay (Bio-Rad, Hercules, Calif., USA). The proteins were separated using sodium dodecyl sulfate polyacrylamide gel electrophoresis (SDS-PAGE) and subsequently transferred to PVDF (Perkin Elmer Life Sciences, Boston, Mass., USA) membrane. […] The signals were monitored using Western Lightning™ Plus-ECL (Perkin Elmer Life Sciences) and the PVDF membrane was exposed to Luminescent image analyzer (LAS)-3000 (Fujifilm, Minato, Tokyo, Japan). Acquired data were analyzed and compared the difference among treatments.
The differentiated L6 cells were incubated with 100 μM of tetracosanol (Tet) at 37° C. for 90 min, and then treated 10 μM of insulin (Ins) at 37° C. for 5 or 30 min. The cell lysates were separated by SDS-PAGE and blotted 5 min for phospho-Insr on Tyr1158, 1162, and 1163 (Insr, 100 kDa), and phospho-AKT on Thr308 protein level was measured at 30 min in Western blot analysis.

T1 sequence (P15127 27-759 limits assumed): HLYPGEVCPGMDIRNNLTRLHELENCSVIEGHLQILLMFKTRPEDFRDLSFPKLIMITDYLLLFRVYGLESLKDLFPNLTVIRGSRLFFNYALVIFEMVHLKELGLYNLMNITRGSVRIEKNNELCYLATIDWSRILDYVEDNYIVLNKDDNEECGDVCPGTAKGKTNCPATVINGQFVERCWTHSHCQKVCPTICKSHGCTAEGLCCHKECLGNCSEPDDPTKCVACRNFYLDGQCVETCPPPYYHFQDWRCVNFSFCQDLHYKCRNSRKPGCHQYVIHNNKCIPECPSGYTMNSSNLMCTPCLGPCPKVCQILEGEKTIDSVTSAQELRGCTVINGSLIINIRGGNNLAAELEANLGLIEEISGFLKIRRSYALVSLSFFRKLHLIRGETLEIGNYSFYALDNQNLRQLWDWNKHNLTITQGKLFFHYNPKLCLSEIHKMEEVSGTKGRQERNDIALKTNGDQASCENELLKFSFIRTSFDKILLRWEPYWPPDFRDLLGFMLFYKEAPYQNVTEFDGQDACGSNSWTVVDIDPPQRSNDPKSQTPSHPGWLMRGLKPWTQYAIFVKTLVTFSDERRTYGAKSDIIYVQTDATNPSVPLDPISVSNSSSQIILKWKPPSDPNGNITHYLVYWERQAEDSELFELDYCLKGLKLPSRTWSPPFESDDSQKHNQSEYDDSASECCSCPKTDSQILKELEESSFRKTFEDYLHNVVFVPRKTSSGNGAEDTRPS
T1 sequence (P15127 764-1383 limits assumed): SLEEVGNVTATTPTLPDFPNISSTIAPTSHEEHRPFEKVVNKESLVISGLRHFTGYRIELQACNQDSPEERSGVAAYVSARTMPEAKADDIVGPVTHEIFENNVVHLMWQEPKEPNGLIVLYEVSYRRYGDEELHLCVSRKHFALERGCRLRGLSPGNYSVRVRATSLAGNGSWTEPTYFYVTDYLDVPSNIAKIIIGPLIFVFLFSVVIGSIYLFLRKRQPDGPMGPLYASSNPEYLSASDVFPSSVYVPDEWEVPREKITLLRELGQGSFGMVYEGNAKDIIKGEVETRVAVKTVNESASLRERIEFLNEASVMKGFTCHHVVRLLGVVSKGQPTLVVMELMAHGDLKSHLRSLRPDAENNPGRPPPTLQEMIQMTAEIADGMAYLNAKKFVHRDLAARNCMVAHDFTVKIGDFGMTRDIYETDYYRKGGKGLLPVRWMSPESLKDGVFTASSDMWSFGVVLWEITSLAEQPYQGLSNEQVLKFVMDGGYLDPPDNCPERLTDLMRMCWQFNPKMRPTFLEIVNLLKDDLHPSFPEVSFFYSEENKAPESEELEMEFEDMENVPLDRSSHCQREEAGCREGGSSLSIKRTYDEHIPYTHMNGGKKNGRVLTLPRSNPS

- phosphorylation of phospho-Insr on Tyr1158, 1162, and 1163 (Insr; insulin plus tetracosanol (Ins+Tet): 100 μM tetracosanol 90 min, then 10 μM insulin 5 min): tended to be enhanced
- phosphorylation of phospho-Insr on Tyr1158, 1162, and 1163 (Insr; insulin with S961 plus tetracosanol (Ins+S961+Tet): 100 nM S961, 100 μM tetracosanol, 10 μM insulin): tended to be enhanced
SMILES: CCCCCCCCCCCCCCCCCCCCCCCCO [tetracosanol]
- insulin-independent GLUT4 translocation response (phospho-AMPK on Thr172) (AMPK): no insulin-independent GLUT4 translocation response
- phospho-AKT on Thr 308 (AKT; 100 μM tetracosanol (Tet) alone, 90 min): did not
- phospho-AKT on Thr 308 (AKT; insulin plus both S961 and tetracosanol (Ins+S961+Tet)): induced the phospho-AKT on Thr 308
- phospho-AKT on Thr 308 (AKT; insulin plus tetracosanol (Ins+Tet): 100 μM tetracosanol 90 min, then 10 μM insulin 30 min): induced the phospho-AKT on Thr 308
